Experimental data from patent US20230048678A1, “ICAN DERIVATIVES FOR ANTIFUNGAL USE” (DEBRECENI EGYETEM, priority 2019, published 2023).
Entries after “also recorded” stand apart in the source; their conditions may differ.

Legend:
human cell cultures = assay: MTT bio assay cytotoxicity; type: cell-based; details: MTT bio assay technique
C. krusei ATCC 6258 = assay: CLSI broth microdilution susceptibility (Table 1); type: cell-based; details: 48 h, 35° C.
Procedure: (§1) ICAN has 3 key moieties, namely the amino, naphthalene and isonitrile. To find out which ones of them are essential for the antifungal behavior and to design more efficient derivatives, comparative studies were carried out, where one of the moieties was exchanged or eliminated. All ICAN derivatives were tested against C. albicans SC5314, C. krusei ATCC 6258 and C. parapsilosis ATCC 22019. The antifungal agents were dissolved in 100% DMSO and diluted further in RPMI-1640 (with L-glutamine but without bicarbonate) and buffered to pH 7.0 with 0.165 M morpholinopropanesulfonic acid (MOPS). MICs were read visually after 48-h incubation at 35° C. using the partial (50%) inhibition (for ICAN derivatives) (PI) and total inhibition (for AMB and ICAN derivatives) (TI) criteria. MICs were determined at least twice.
(§2) The tested C. albicans, C. tropicalis, C. parapsilosis, C. glabrata and C. krusei ATCC strains and clinical isolates are listed in Table 2. MICs were determined according to the CLSI M27-A3 [22]. Antifungal agents were dissolved in 100% DMSO and diluted further in RPMI-1640 (with L-glutamine but without bicarbonate) (Sigma, Budapest, Hungary), and buffered to pH 7.0 with 0.165 M morpholinopropanesulfonic acid (MOPS; Sigma, Budapest, Hungary). The final concentration ranges used for AMB and ICAN derivatives were 0.125 to 4 μg/ml and 0.04 to 20 μg/ml, respectively. Yeast cell suspensions were prepared in RPMI 1640 medium and were adjusted to give a final inoculum concentration of 0.5×10^3 to 2.5×10^3 cells/ml. MICs were read visually after 48-h incubation at 35° C. using the partial (50%) inhibition (for ICAN derivatives) (PI) and total inhibition (for AMB and ICAN derivatives) (TI) criteria. MICs were determined at least twice. For amphotericin B isolates with MIC values of ≤2 mg/L were considered wild-types. [Pfaller M A, 2012]

[1] = tested on: C. parapsilosis ATCC 22019; assay: CLSI broth microdilution susceptibility (Table 1); type: cell-based; details: 48 h, 35° C.
Procedure: as §1, §2

[2] = tested on: clinical Candida isolates (C. albicans, C. krusei, C. tropicalis, C. glabrata, C. parapsilosis); assay: Broth microdilution, MIC summarised over all clinical Candida isolates; type: cell-based; details: range or bound over all tested isolates of five Candida species
Procedure: The present inventors have discovered that 1-amino-5-isocyanonaphthalene (ICAN) and its derivatives exert excellent antifungal activity against a broad range of Candida species. […] Nevertheless, proper formulation and/or substitution with solubility enhancer groups on the naphthalene core may increase its effectiveness. Based on MIC values (MICPI=0.04−0.3 μg/ml MICTI=0.6 μg/ml) and its low cytotoxicity 1,1-N-dimethylamino-5-isocyanonaphthalene (DIMICAN) was selected to be tested on clinical Candida isolates. […] Amphotericin B (AMB) is an antifungal agent which is effective against a number of medically important fungi. The in vivo applicability of DIMICAN was tested on immunosuppressed mice and control experiments were also conducted with amphotericin B. In the model of acute invasive candidiasis, neutropenic mice were infected intravenously with C. albicans isolate 3666 (3×10^4 cfu/mouse) to establish an acute infection, and all untreated control animals died within 6 days. […]
The tested C. albicans, C. tropicalis, C. parapsilosis, C. glabrata and C. krusei ATCC strains and clinical isolates are listed in Table 2. MICs were determined according to the CLSI M27-A3 [22]. […] MICs were read visually after 48-h incubation at 35° C. using the partial (50%) inhibition (for ICAN derivatives) (PI) and total inhibition (for AMB and ICAN derivatives) (TI) criteria. MICs were determined at least twice. […]

C. albicans isolate 3666 = assay: Murine model, kidney fungal burden; type: in vivo, BALB/c mice; details: immunosuppressed mice, 10^4 cfu/mouse iv
Procedure: During an independent in vivo experiment mice were infected intravenously with C. albicans isolate 3666. The infected mice were euthanized 2 or 6 days after infection (n=5 and 6 mice/time point, respectively), as disclosed herein, to determine the fungal burdens in the kidneys. Kidney burden was analyzed using a Kruskal-Wallis test with Dunn's posttest for multiple comparisons [Foldi R 2012, Kovacs R 2014]. Results of fungal burden experiments are shown on FIGS. 3b and c. […] It is well seen in […], that on day 6. the fungal burden increased by an order of magnitude (from −10^5 to −10^6) in the case of the untreated mice, while in the case of DIMICAN it remained the same as it was on day 2. The same is valid for AMB.
We used 10-12 week-old female BALB/c mice for all experiments. Mice were immunosuppressed using 150 mg/kg intraperitoneal (ip) cyclophosphamide dose (4 days prior to infection) and 100 mg/kg ip cyclophosphamide dose (1 day prior to infection; 2 and 5 days after infection) [Spellberg B, 2005]. All mice received ceftazidime (5 mg/day subcutaneously) from days 0 to 6 after infection. Mice were given food and water ad libitum and were monitored daily. The animals were maintained in accordance with the Guidelines for the Care and Use of Laboratory Animals, and the experiments were approved by the Animal Care Committee of the University of Debrecen, Debrecen, Hungary (permission no. 12/2014).
Mice were infected via the lateral tail vein with C. albicans 3666 bloodstream isolate. In the lethality (10 mice/group) and fungal tissue burden experiments (6 mice/group) the infectious doses were 3×10^4 and 10^4 cfu/mouse, respectively. These doses led to 100% and 0% mortality, respectively by day 6 after infection among untreated mice. Inoculum density was confirmed by plating serial dilutions onto Sabouraud dextrose agar (SDA) plates.
AMB (Fungizone, commercial preparation) and DIMICAN treatment in a 0.5-ml bolus was started 1 h after infection. The doses were 1 mg AMB and 5 mg DIMICAN (in olive oil/water (o/w) emulsion) per kg body weight. All antifungals were administered intraperitoneally once daily for 5 consecutive days.
Infected mice were euthanized 2 or 6 days after infection (n=6 mice/time point) to determine the fungal burden in the kidney. […] Aliquots of 0.1 ml of the undiluted and diluted homogenates were plated onto SDA, and the colony count was determined after 48 h. Colony-forming units (CFUs) were determined after 48 h of incubation at 37° C. and results were expressed as cfus/g tissue [Spellberg B, 2005]. […]
Survival effects were analyzed by the Kaplan—Meier log-rank test. Kidney burden was analysed using a Kruskal—Wallis test with Dunn's posttest for multiple comparisons [Foldi R 2012, Kovacs R 2014].

Structure (SMILES): [C-]#[N+]c1cccc2c(N(C)C)cccc12 [DIMICAN, N,N-dimethyl-1-amino-5-isocyanonaphthalene]
- LD50 (human cell cultures): 13 µg/mL
- MICPI (C. krusei ATCC 6258; partial (50%) inhibition): 0.15 µg/mL
- MICTI (C. krusei ATCC 6258; total inhibition): 0.3 µg/mL
- MICPI ([1]; partial (50%) inhibition): 0.15 µg/mL
- MICTI ([1]; total inhibition): 0.6 µg/mL
- total minimum inhibitory concentration (MICTI) [2]: 0.08 to 1.25 µg/mL
- effect on kidney fungal burden, six days after infection (C. albicans isolate 3666; 5 mg/kg DIMICAN or 1 mg/kg AMB ip once daily for 5 days, p<0.05 (AMB), p<0.001 (DIMICAN) vs control): efficient; also recorded: significantly lower fungal burden
- effect on kidney fungal burden, two days after infection (C. albicans isolate 3666; 5 mg/kg DIMICAN or 1 mg/kg AMB ip once daily, P>0.05 vs control): no effect on fungal load
